Laboratory results reported in US20250052744A1, “Dyes and Uses Thereof” (The University of Liverpool, priority 2021, published 2025).

Legend:
Experiment in all cases: Bacterial growth with dyes, optical density after 24 hours
Type in all cases: cell-based
Conditions in all cases: with 3 μM DiSC3(5) and 3 μM SYTO 13/9
E. Coli SEC 31 = tested on: E. Coli SEC 31
Experimental: (§1) FIG. 3 is a graph showing is a graph showing the average optical density after 24 hours (OD 600) of P. Aeruginosa NCTC 10332, E. Coli SEC 31, Enterococcus faecium NCTCT 7171, P. Mirabilis NCTC 11938, S. Aureus NCTC 8532 and Klebsiella pneumoniae NCTC 9633, when incubated with DiSC3(5), SYBR Green I and SYTO 13/9 where different concentrations of SYBR Green I were assessed.
(§2) FIG. 4 is a graph showing is a graph showing the average optical density after 24 hours (OD 600) of P. Aeruginosa NCTC 10332, E. Coli SEC 31, Enterococcus faecium NCTCT 7171, P. Mirabilis NCTC 11938, S. Aureus NCTC 8532 and Klebsiella pneumoniae NCTC 9633, when incubated with DiSC3(5), SYBR Green I and SYTO 13/9 where different concentrations of SYTO 13/9 were assessed.
(§3) Comparative experiments were conducted using multiple DNA dyes in low concentration and one DNA at different (and higher) concentration in order to establish whether increasing DNA dye concentration would affect bacterial growth and hinder the differentiation of bacterial strains.
(§4) Experiments were conducted which were similar to Example 1.
(§5) In one experiment, 3 μM of DiSC3(5) and 3 μM of SYTO 13/9 was assessed with CYBR Green I at the following concentrations: 1× average, 3× average, 10× average, 30 average and 100× average.
(§6) In another experiment, 3 μM of DiSC3(5) and 10× of CYBR Green I was assessed with SYTO 13/9 at the following concentrations: 1 μM average, 3 μM average and 10 μM average.

P. Mirabilis NCTC 11938 = tested on: P. Mirabilis NCTC 11938
Experimental: as §1, §2, §3, §4, §5, §6

[1] = tested on: Enterococcus faecium NCTCT 7171
Experimental: as §1, §2, §3, §4, §5, §6

P. Aeruginosa NCTC 10332 = tested on: P. Aeruginosa NCTC 10332
Experimental: as §1, §2, §3, §4, §5, §6

[2] = tested on: Klebsiella pneumoniae NCTC 9633
Experimental: as §1, §2, §3, §4, §5, §6

S. Aureus NCTC 8532 = tested on: S. Aureus NCTC 8532
Experimental: as §1, §2, §3, §4, §5, §6

SMILES: CCCN(CCCN(C)C)c1cc(/C=C2/Sc3ccccc3N2C)c2ccccc2[n+]1-c1ccccc1 [SYBR Green I, N′,N′-dimethyl-N-[4-[(E)-(3-methyl-1,3-benzothiazol-2-ylidene)methyl]-1-phenylquinolin-1-ium-2-yl]-N-propylpropane-1,3-diamine]
- average optical density after 24 hours (OD 600) (E. Coli SEC 31; SYBR Green I 1x): 3.407
- average optical density after 24 hours (OD 600) (E. Coli SEC 31; SYBR Green I 3x): 3.306
- average optical density after 24 hours (OD 600) (E. Coli SEC 31; SYBR Green I 10x): 3.139
- average optical density after 24 hours (OD 600) (E. Coli SEC 31; SYBR Green I 30x): 2.086
- average optical density after 24 hours (OD 600) (E. Coli SEC 31; SYBR Green I 100x): 2.514
- average optical density after 24 hours (OD 600) (P. Mirabilis NCTC 11938; SYBR Green I 1x): 5.785
- average optical density after 24 hours (OD 600) (P. Mirabilis NCTC 11938; SYBR Green I 3x): 5.785
- average optical density after 24 hours (OD 600) (P. Mirabilis NCTC 11938; SYBR Green I 10x): 4.635
- average optical density after 24 hours (OD 600) (P. Mirabilis NCTC 11938; SYBR Green I 30x): 4.044
- average optical density after 24 hours (OD 600) (P. Mirabilis NCTC 11938; SYBR Green I 100x): 0.001
- average optical density after 24 hours (OD 600) ([1]; SYBR Green I 1x): 1.158
- average optical density after 24 hours (OD 600) ([1]; SYBR Green I 3x): 1.315
- average optical density after 24 hours (OD 600) ([1]; SYBR Green I 10x): 0.136
- average optical density after 24 hours (OD 600) ([1]; SYBR Green I 30x): 0
- average optical density after 24 hours (OD 600) ([1]; SYBR Green I 100x): 0.022
- average optical density after 24 hours (OD 600) (P. Aeruginosa NCTC 10332; SYBR Green I 1x): 5.785
- average optical density after 24 hours (OD 600) (P. Aeruginosa NCTC 10332; SYBR Green I 3x): 5.785
- average optical density after 24 hours (OD 600) (P. Aeruginosa NCTC 10332; SYBR Green I 10x): 2.968
- average optical density after 24 hours (OD 600) (P. Aeruginosa NCTC 10332; SYBR Green I 30x): 3.113
- average optical density after 24 hours (OD 600) (P. Aeruginosa NCTC 10332; SYBR Green I 100x): 2.39
- average optical density after 24 hours (OD 600) ([2]; SYBR Green I 1x): 4.719
- average optical density after 24 hours (OD 600) ([2]; SYBR Green I 3x): 4.907
- average optical density after 24 hours (OD 600) ([2]; SYBR Green I 10x): 3.439
- average optical density after 24 hours (OD 600) ([2]; SYBR Green I 30x): 2.053
- average optical density after 24 hours (OD 600) ([2]; SYBR Green I 100x): 1.138
- average optical density after 24 hours (OD 600) (S. Aureus NCTC 8532; SYBR Green I 1x): 3.796
- average optical density after 24 hours (OD 600) (S. Aureus NCTC 8532; SYBR Green I 3x): 0
- average optical density after 24 hours (OD 600) (S. Aureus NCTC 8532; SYBR Green I 10x): 0
- average optical density after 24 hours (OD 600) (S. Aureus NCTC 8532; SYBR Green I 30x): 0
- average optical density after 24 hours (OD 600) (S. Aureus NCTC 8532; SYBR Green I 100x): 0
